# Measurements taken from US6534524B1, “Indazole compounds and pharmaceutical compositions for inhibiting protein kinases, and methods for their use” (Agouron Pharmaceuticals, Inc., priority 1999, dated 2003).
# Like-named read-outs stand apart in the source and are kept apart here. Marks after values point to notes of the source that are not given here.
# Columns and labels:
# [1] = Human liver microsome (HLM) assay; assay type: in vitro ADME; conditions: human liver microsomes, 5 μM test compound
# Procedure, shortened: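 Compound metabolism in human liver microsomes measured in triplicate. Samples at 0 and 2 h centrifuged at 14000 g for 10 min and analysed by LC-MS.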
# [2] = Determination of inhibitor concentration in mouse plasma after intraperitoneal and oral dosing; assay type: in vivo
# Procedure, shortened: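 Mice dosed intraperitoneally or orally; blood taken by ocular bleed at 0.5, 1 and 4 h and by intracardiac puncture at 7 h. Plasma extracted with ethyl acetate after internal standard and NaOH addition, analysed by HPLC or LC-MS against a mouse-plasma standard curve.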
# [3] = test system: human umbilical vein endothelial cells (HUVEC); assay: HUVEC proliferation assay (VEGF-stimulated, MTT); assay type: cell-based; conditions: Homo sapiens, HUVEC; read-out: HUVEC IC50
# [4] = molecular target: unphosphorylated VEGF-R2Δ50 (FLVK) (Homo sapiens, UniProt P35968, DEL940-989/E990V); assay: VEGF-R2 coupled spectrophotometric assay, unphosphorylated VEGF-R2Δ50 (FLVK); conditions: FLVK Ki, Table 1
# [5] = IP, 25 mg/kg, vehicle PEG400:H2O pH 2.3 30:70
# [6] = PO, 50 mg/kg, vehicle PEG400:H2O pH 2.3 30:70
# [7] = female, IP, 25 mg/kg, vehicle PEG400:H2O pH 2.3 30:70, read-out: Cmin (7 hr conc.)
# [8] = female, PO, 50 mg/kg, vehicle PEG400:H2O pH 2.3 30:70, read-out: Cmin (7 hr conc.)
# [9] = IP, 25 mg/kg, vehicle PEG400:H2O pH 2.3 60:40
# [10] = PO, 50 mg/kg, vehicle PEG400:H2O pH 2.3 60:40
# [11] = PO, 25 mg/kg, vehicle PEG400:H2O pH 2.3 30:70
# [12] = female, PO, 25 mg/kg, vehicle PEG400:H2O pH 2.3 30:70, read-out: Cmin (7 hr conc.)
# unphosphorylated VEGF-R2Δ50 (FLVK), sequence (P35968 with tags, fused parts or gaps DEL940-989/E990V limits assumed): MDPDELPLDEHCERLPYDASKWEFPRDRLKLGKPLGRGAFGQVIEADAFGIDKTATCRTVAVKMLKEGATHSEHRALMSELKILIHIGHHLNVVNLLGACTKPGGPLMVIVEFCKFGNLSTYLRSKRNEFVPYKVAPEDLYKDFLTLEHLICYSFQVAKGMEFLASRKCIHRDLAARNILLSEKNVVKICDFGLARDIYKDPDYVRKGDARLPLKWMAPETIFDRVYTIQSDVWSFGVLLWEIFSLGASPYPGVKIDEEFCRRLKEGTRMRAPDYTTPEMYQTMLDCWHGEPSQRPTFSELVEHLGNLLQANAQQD
smiles,measurement,setting,value
"C[C@@H]1C[C@H]1C(=O)Nc1cccc(C(=O)c2ccc3c(/C=C/c4ccccn4)n[nH]c3c2)c1 (racemic) [Example 41(h), 6-[3-((2-RS-trans-Methylcyclopropyl)carboxamido)benzoyl]-3-E-[2-(pyridin-2-yl)ethenyl]-1H-indazole]","% remain (HLM, 2 h)",[1],8%
same,AUClast,[2]; [5],26911 ng·h/mL
same,Cmax,[2]; [5],16005 ng/mL
same,plasma half-life (T1/2),[2]; [5],1.2 h
same,AUClast,[2]; [6],4677 ng·h/mL
same,Cmax,[2]; [6],4080 ng/mL
same,plasma half-life (T1/2),[2]; [6],0.7 h
same,concentration at 7 h,[2]; [7],300 ng/mL
same,concentration at 7 h,[2]; [8],7 ng/mL
same,IC50,[3],2 nM
"O=C(Nc1cccc(Oc2ccc3c(/C=C/c4ccc(Cl)cc4)n[nH]c3c2)c1)c1ccccc1 [Example 6(a), N-(3-{3-[2-(4-Chloro-phenyl)-vinyl]-1H-indazol-6-yloxy}-phenyl)-benzamide]","% remain (HLM, 2 h)",[1],69* %
same,Ki,[4],0.74 nM
"Cc1cnc(C(=O)Nc2cccc(N(C)c3ccc4c(/C=C/c5ccccc5)n[nH]c4c3)c2)s1 [Example 12(d), 5-Methyl-thiazole-2-carboxylic Acid {3-[Methyl-(3-styryl-1H-indazol-6-yl)-amino]-phenyl}-amide]","% remain (HLM, 2 h)",[1],51%
same,Ki,[4],0.39 nM
"O=C(Nc1cccc(Nc2ccc3c(/C=C/c4ccccc4)n[nH]c3c2)c1)c1ccccc1 [Example 13, N-[3-(3-Styryl-1H-indazol-6-ylamino)-phenyl]-benzamide]","% remain (HLM, 2 h)",[1],69%
same,Ki,[4],1.3 nM
"CN(c1cccc(NC(=O)c2ccccc2)c1)c1ccc2c(/C=C/c3ccc4c(c3)OCO4)n[nH]c2c1 [Example 16(a), N-(3-{[3-(2Benzo[1,3]dioxol-5-yl-vinyl)-1H-indazol-6-yl]-methyl-amino}-phenyl)-benzanide]","% remain (HLM, 2 h)",[1],7* %
same,Ki,[4],0.08 nM
"Cc1cccc(C(=O)Nc2cccc(N(C)c3ccc4c(/C=C/c5ccc6c(c5)OCO6)n[nH]c4c3)c2)c1 [Example 16(b), N-(3-{[3-(2-Benzo[1,3]dioxol-5-yl-vinyl)-1H-indazol-6-yl]-methyl-amino}-phenyl)-3-methyl-benzamide]","% remain (HLM, 2 h)",[1],50%
same,Ki,[4],0.34 nM
"Cc1cnc(C(=O)Nc2cccc(C(=O)c3ccc4c(/C=C/c5ccccc5)n[nH]c4c3)c2)s1 [Example 19(d), 5-Methyl-thiazole-2-carboxylic Acid[3-(3-styryl-1H-indazole-6-carbonyl)-phenyl]-amide]","% remain (HLM, 2 h)",[1],36%
same,Ki,[4],0.72 nM
"O=C(c1cccc(NC(=O)c2cccc3[nH]ccc23)c1)c1ccc2c(/C=C/c3ccccc3)n[nH]c2c1 [Example 19(f), 6-[3-(Indol-4-ylcarboxamido)benzoyl]-3-E-styryl-1H-indazole]","% remain (HLM, 2 h)",[1],98%
same,Ki,[4],0.18 nM
"O=C(Nc1cccc(C(=O)c2ccc3c(/C=C/c4ccccc4)n[nH]c3c2)c1)c1ccncc1 [Example 19(j), 6-[3-(Pyridin-4-ylcarboxamido)benzoyl]-3-E-styryl-1H-indazole]","% remain (HLM, 2 h)",[1],66%
same,AUClast,[2]; [9],23205 ng·h/mL
same,Cmax,[2]; [9],5764 ng/mL
same,plasma half-life (T1/2),[2]; [9],1.6 h
same,AUClast,[2]; [10],5889 ng·h/mL
same,Cmax,[2]; [10],1937 ng/mL
same,plasma half-life (T1/2),[2]; [10],1.2 h
same,concentration at 7 h,"[2]; female, IP, 25 mg/kg, vehicle PEG400:H2O pH 2.3 60:40, read-out: Cmin (7 hr conc.)",456 ng/mL
same,concentration at 7 h,"[2]; female, PO, 50 mg/kg, vehicle PEG400:H2O pH 2.3 60:40, read-out: Cmin (7 hr conc.)",63 ng/mL
same,Ki,[4],0.33 nM
"O=C(c1cccc(NC(=O)c2cccc(Cl)n2)c1)c1ccc2c(/C=C/c3ccccc3)n[nH]c2c1 [Example 19(m), 6-[3-(6-Chloropyridin-2-ylcarboxamido)benzoyl]-3-E-styryl-1H-indazole]","% remain (HLM, 2 h)",[1],61%
same,Ki,[4],0.68 nM
"O=C(Nc1cccc(Oc2ccc3c(/C=C/c4cccs4)n[nH]c3c2)c1)c1ccccc1 [Example 30(a), 6-[3-Benzamidophenoxy]-3-E-[2-(thien-2-yl)ethenyl]-1H-indazole]","% remain (HLM, 2 h)",[1],64%
same,Ki,[4],1.7 nM
"O=C(Nc1cccc(Oc2ccc3c(/C=C/c4ccco4)n[nH]c3c2)c1)c1ccccc1 [Example 30(c), 6-[3-Benzamidophenoxy]-3-E-[2-(fur-2-yl)ethenyl]-1H-indazole]","% remain (HLM, 2 h)",[1],54%
same,Ki,[4],0.83 nM
"O=C(Nc1cccc(Oc2ccc3c(/C=C/c4ccccn4)n[nH]c3c2)c1)c1ccccc1 [Example 31(a), 6-[3-Benzamidophenoxy]-3-E-[2-(pyridin-2-yl)ethenyl]-1H-indazole]","% remain (HLM, 2 h)",[1],58%
same,AUClast,[2]; [5],47538 ng·h/mL
same,Cmax,[2]; [5],13018 ng/mL
same,plasma half-life (T1/2),[2]; [5],2.4 h
same,AUClast,[2]; [6],40863 ng·h/mL
same,Cmax,[2]; [6],14499 ng/mL
same,plasma half-life (T1/2),[2]; [6],1.6 h
same,concentration at 7 h,[2]; [7],1910 ng/mL
same,concentration at 7 h,[2]; [8],834 ng/mL
same,Ki,[4],0.29 nM
"Cn1ccnc1C(=O)Nc1cccc(Oc2ccc3c(/C=C/c4ccccn4)n[nH]c3c2)c1 [Example 31(e), 6-[3-((1-Methylimidazol-2-yl)carboxaniido)phenoxy]-3-E-[2-(pyridin-2-yl)ethenyl]-1H-indazole]","% remain (HLM, 2 h)",[1],49%
same,plasma half-life (T1/2),[2]; [11],13.1 h
same,AUC(0-t),"[2]; female, PO, 25 mg/kg, vehicle PEG400:H2O pH 2.3 30:70",> 30300 ng·h/mL
same,concentration at 7 h,[2]; [12],2950 ng/mL
same,Ki,[4],0.02 nM
"O=C(Nc1ccccc1)c1ccccc1Sc1ccc2c(/C=C/c3ccccn3)n[nH]c2c1 [Example 33(c), 6-[2-(Phenylcarbamoyl)phenylsulfanyl]-3-E-[2-(pyridin-2-yl)ethenyl]-1H-indazole]","% remain (HLM, 2 h)",[1],16%
same,AUClast,[2]; [5],697 ng·h/mL
same,Cmax,[2]; [5],505 ng/mL
same,plasma half-life (T1/2),[2]; [5],1.2 h
same,AUClast,[2]; [6],183 ng·h/mL
same,Cmax,[2]; [6],94 ng/mL
same,plasma half-life (T1/2),[2]; [6],3.0 h
same,concentration at 7 h,[2]; [7],7 ng/mL
same,concentration at 7 h,[2]; [8],5 ng/mL
same,Ki,[4],0.28 nM
"O=C(NC1CC1)c1ccccc1Sc1ccc2c(/C=C/c3ccccn3)n[nH]c2c1 [Example 33(e), 6-[2-(Cyclopropylcarbamoyl)phenylsulfanyl]-3-E-[2-(pyridin-2-yl)ethenyl]-1H-1H-indazole]","% remain (HLM, 2 h)",[1],54%
same,AUClast,[2]; [5],14323 ng·h/mL
same,plasma half-life (T1/2),[2]; [5],1.0 h
same,AUClast,[2]; [6],13290 ng·h/mL
same,plasma half-life (T1/2),[2]; [6],0.7 h
same,concentration at 7 h,[2]; [7],94 ng/mL
same,concentration at 7 h,[2]; [8],12 ng/mL
same,Ki,[4],1.7 nM
"CCOCCNC(=O)c1ccccc1Sc1ccc2c(/C=C/c3ccccn3)n[nH]c2c1 [Example 35(z), 6-[2-(2-(Ethoxy)ethylcarbamoyl)phenylsulfanyl]-3-E-[2-(pyridin-2-yl)ethenyl]-1H-indazole]","% remain (HLM, 2 h)",[1],2%
same,AUClast,[2]; [5],837 ng·h/mL
same,plasma half-life (T1/2),[2]; [5],1.8 h
same,AUClast,[2]; [6],1001 ng·h/mL
same,plasma half-life (T1/2),[2]; [6],1.6 h
same,concentration at 7 h,[2]; [7],22 ng/mL
same,concentration at 7 h,[2]; [8],14 ng/mL
Cn1ccnc1/C=N/NC(=O)c1ccccc1Sc1ccc2c(/C=C/c3ccccn3)n[nH]c2c1 [Example 36(a)],"% remain (HLM, 2 h)",[1],58%
same,AUClast,[2]; [11],605 ng·h/mL
same,plasma half-life (T1/2),[2]; [11],1.5 h
same,concentration at 7 h,[2]; [12],17 ng/mL
"CC(C)ONC(=O)c1cccc(F)c1Sc1ccc2c(/C=C/c3ccccn3)n[nH]c2c1 [Example 37(c), 6-[6-Fluoro-2-(isopropoxycarbamoyl)phenylsulfanyl]-3-E-[2-(pyridin-2-yl)ethenyl]-1H-indazole]","% remain (HLM, 2 h)",[1],21%
same,AUClast,[2]; [11],2419 ng·h/mL
same,plasma half-life (T1/2),[2]; [11],1.2 h
same,concentration at 7 h,[2]; [12],9 ng/mL
"COc1cccc(C(=O)Nc2cccc(C(=O)c3ccc4c(/C=C/c5ccccn5)n[nH]c4c3)c2)c1 [Example 41(bb), 6-[3-(3-Methoxybenzamido)benzoyl]-3-E-[2-(pyridin-2-yl)ethenyl]-1H-indazole]","% remain (HLM, 2 h)",[1],110%
same,AUClast,[2]; [6],2178 ng·h/mL
same,Cmax,[2]; [6],596 ng/mL
same,plasma half-life (T1/2),[2]; [6],2.0 h
same,concentration at 7 h,[2]; [8],75 ng/mL
"CC(C)=CC(=O)Nc1cccc(C(=O)c2ccc3c(/C=C/c4ccccn4)n[nH]c3c2)c1 [Example 41(dd), 6-[3(3,3-Dimethylacrylamido)benzoyl]-3-E-[2-(pyridin-2-yl)ethenyl]-1H-indazole]","% remain (HLM, 2 h)",[1],7%
same,AUClast,[2]; [11],654 ng·h/mL
same,plasma half-life (T1/2),[2]; [11],0.8 h
same,concentration at 7 h,[2]; [12],1 ng/mL
"Cc1cc(C(=O)Nc2cc(C(=O)c3ccc4c(/C=C/c5ccccn5)n[nH]c4c3)ccc2C)n(C(C)C)n1 [Example 41(kk), 6-[3-((1-Isopropyl-3-methyl-1H-pyrazol-5-yl)carboxamido)-4-methylbenzoyl]-3-E-[2-(pyridin-2-yl)ethenyl]-1H-indazole]","% remain (HLM, 2 h)",[1],63%
same,AUClast,[2]; [11],11612 ng·h/mL
same,plasma half-life (T1/2),[2]; [11],2.0 h
same,concentration at 7 h,[2]; [12],415 ng/mL
